These are literature values, as cited in patent publication US6046167A, “Peptide YY analogs” (University of Cincinnati, priority 1998, dated 2000).

The data set relates to rat small intestine. As to conditions: voltage clamped preparations of rat small intestine; literature comparison.

As to “PYY: 36-residue peptide amide isolated originally from porcine intestine [Peptide YY]”, the antisecretory potency result is “greater antisecretory potency than NPY”.
